Laboratory results published in PMC12703733, “Probing Guanidino Pendant or Bridged Groups in Cyclic Antimicrobial Peptides Derived from Temporin L: A Strategy to Improve Efficacy against Gram-Negative Bacteria” (Journal of Medicinal Chemistry, 2025).
Bridge positions count the residues as written; N and C are the ends. Square brackets hold non-standard residues; d marks the D form. Peptide text beside a SMILES is read from it.

What was measured:
[1] = test system: Gram-positive bacteria tested; assay: MIC panel, Gram-positive strains (geometric mean, range); type: cell-based; settings: geometric mean of the MICs against Gram-positive bacteria tested
Method: (§1) The antimicrobial efficacy of the TLcyc analogues was assessed against a representative panel of Gram-positive and Gram-negative bacterial strains, by determining their minimal inhibitory concentrations (MIC), as summarized in Table . To provide an integrated measure of antimicrobial potency, we calculated the geometric mean (GM) of MIC values across all strains (GMall), as well as separately for Gram-positive (GMGram+) and Gram-negative (GMGram–) bacteria.
(§2) Bacterial strains used in this study were the Gram-positive S. aureus ATCC 25923, S. epidermidis ATCC 12228, B. megaterium BM11, S. agalactiae ATCC 27591, E. faecalis ATCC 29212 and the Gram-negative E. coli ATCC 25922, P. aeruginosa ATCC 27853, A. baumannii ATCC 19606, E. coli D21 and P. aeruginosa PAO1. […] Bacterial cells in the mid log phase were diluted in Muller Hinton (MH) at a concentration of 2 × 10^6 cell/mL. Aliquots of 50 μL of this bacterial suspension were added to 50 μL of MH containing serial 2-fold dilutions of the peptides (from 100 to 0.19 μM) in the wells a 96-well plate. Ciprofloxacin was used as antibiotic control. The plate was then incubated at 37 °C. MICs were obtained from three identical readings of four independent experiments.

[2] = circular dichroism; settings: water; pH ns; 25 °C; 150 uM
[3] = test system: S. aureus ATCC 25923 biofilm; assay: Activity against preformed biofilm (MTT); type: cell-based; settings: concentrations below 25 μM
Method: The antibiofilm activity was evaluated as elsewhere reported. Bacteria grew at 37 °C until they reached an optical density (OD) of 0.8 (λ = 590 nm). The culture was diluted to a cell density of 1 × 10^6 colony-forming units (CFUs)/mL and aliquots of 100 μL of this suspension were dispensed into the wells of a 96-multiwell plate. After biofilm formation (incubation time = 20 h at 37 °C), all the planktonic cells were removed, and the wells were washed twice with PBS (150 μL). After washing, the wells were filled with PBS supplemented with different 2-fold serial dilutions of the tested peptides (from 50 to 1.56 μM). After peptide treatment (incubation time = 2 h at 37 °C) the wells were washed with PBS twice and filled with 150 μL of MTT (0.5 mg/mL) to evaluate biofilm viability after 4 h incubation at 37 °C. The reaction was then stopped by adding SDS (final concentration equal to 5% v/v). A microplate reader (Infinite M200; Tecan, Salzburg, Austria) was used to measure the absorbance of each well at 570 nm and the percentage of biofilm viability was calculated relative to the untreated samples.

[4] = in vitro; type: in vitro ADME; settings: isolated enzyme chymotrypsin, pH 7.8
How it was run: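 Peptides (200 μM final) incubated at 37 °C in human male AB serum (9:1 serum/stock), or with trypsin (0.5 μM, PBS pH 7.2) or chymotrypsin (0.005 μM, Tris–HCl 100 mM pH 7.8). Samples taken up to 24 h, quenched, analysed by RP-HPLC at 220 nm; % intact peptide from peak areas, triplicate.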

[5] = test system: Gram-negative bacteria tested; assay: MIC panel, Gram-negative strains (geometric mean); type: cell-based; settings: geometric mean of the MICs against Gram-negative bacteria tested
Method: as §1, §2

[6] = test system: all bacteria tested; assay: MIC panel, geometric mean over all strains; type: cell-based; settings: geometric mean of the MICs against all bacteria tested
Method: as §1, §2

[7] = Circular dichroism in water (BeStSel); type: physicochemical; settings: predicted from CD spectra in H2O using BeStSel
Method: The secondary structure of each peptide was studied in solution and in small unilamellar vesicles (SUVs) mimicking Gram-positive and Gram-negative membranes performing CD analysis. The CD spectrum for each peptide in solution was recorded at 150 μM, using the quartz cells of 0.1 cm path length with a Jasco J-1500 CD Spectrometer at 25 °C. SUVs at the concentration of 150 μM (P/L = 1) and […] (P/L = 0.4) were prepared as reported: the lipid film was hydrated with water for 1h and then sonicated for 30 min. CD spectra were recorded at the peptide/lipid ratio of 1:1 both in the presence with SUVs mimicking Gram-positive and Gram-negative membranes. CD spectra were recorded at 25 °C on a in a 0.1 cm quartz cell using three consecutive scans from 260 to 190 nm, 3 nm bandwidth, a time constant of 16 s, and a scan rate of 10 nm/min.

[8] = test system: P. aeruginosa ATCC 27853; type: cell-based
Method: The ability of peptides to alter the bacterial membrane permeability of planktonic cells of S. aureus ATCC 25923 and P. aeruginosa ATCC 27853 was determined by the Sytox Green assay. Approximately 1 × 10^6 cells in 100 μL of PBS were combined with 1 μM Sytox Green in the dark for 5 min. The fluorescence intensity was monitored using a microplate reader (Infinite M200, Tecan), with excitation and emission at λ = 485 and 535 nm, respectively. Peptides were added (time = 0) at three different concentrations (i.e., 3.12, 6.25, and 12.5 μM). Increase in the fluorescence intensity is due to the binding of the dye to intracellular nucleic acids. Controls consisted of cells that were not exposed to the peptides. The values correspond to one representative experiment out of three independent experiments.

SMILES: CC[C@H](C)[C@H](NC(=O)[C@H](CCCNC(=N)N)NC(=O)[C@H]1CCC(=O)NCCCC[C@H](NC(=O)[C@H](Cc2ccccc2)NC(=O)[C@H](Cc2c[nH]c3ccccc23)NC(=O)[C@@H]2CCCN2C(=O)[C@@H](NC(=O)[C@@H](N)Cc2ccccc2)C(C)C)C(=O)N[C@@H](CCCCN)C(=O)N[C@@H](Cc2ccccc2)C(=O)N[C@H](CC(C)C)C(=O)N1)C(=O)N[C@@H](CC(C)C)C(N)=O [Peptide 2, FVPWF[KKFle]RIL] (H-FVPWFKKF[dL][dE]RIL-NH2; lactam 6-10)
- geometric mean GMGram+ [1]: 4.72 µM
- helicity [2]: 7%
- antibiofilm activity (in words) [3]: weaker or no activity
- remaining at 4 h, 200 μM [4]: ~20%
- geometric mean GMGram– [5]: 16.4 µM
- geometric mean GMall [6]: 8.81 µM
- Content in water (%) random [7]: 55%
- Content in water (%) α-helix [7]: 7%
- Content in water (%) β-strand [7]: 38%
- membrane permeabilization, Sytox Green fluorescence (in words) [8]: lower intensity
